The record followed here is ChEMBL document CHEMBL1151347, “Lignans From Justicia flava” (J Nat Prod, 1980).

The species named for assay [1] is Mus musculus. The assay can be described thus: Effect on central nervous system in mouse assessed as ataxia. The assay is classed as functional, organism-based.
The species named for assay [2] is Mus musculus. Description: Effect on central nervous system in mouse assessed as decrease in motor activity. The format is functional, organism-based.

Active and inactive are the calls of the source. The rule behind the calls is not given here.

As to `O=C1OCc2c1cc1ccc3c(c1c2-c1ccc2c(c1)OCO2)OCO3`, the result in the assay listed under Mus musculus [1] and in the assay filed under Mus musculus [2] was inactive.
With `COc1cc(OC)c2c(-c3ccc4c(c3)OCO4)c3c(c(OC)c2c1O)COC3=O`, the outcome in the assay filed under Mus musculus [1] and in the assay filed under Mus musculus [2] was inactive.
Take `COc1cc([C@H]2c3cc(O)c(OC)cc3C[C@@H](CO)[C@@H]2CO)ccc1O`: the outcome in the assay filed under Mus musculus [1] and in the assay listed under Mus musculus [2] was inactive.
